We go through one molecule from US9199862B2, “Method for adsorbing fluorocarboxylic acid having ether bond and method for collecting same” (DAIKIN INDUSTRIES, LTD., priority 2009, dated 2015).

SMILES strings stand for the structures.

A short description of one data set: solubility in water. Format: physicochemical. Particulars: normal temperature. The text has this: A fluorocarboxylic acid having an ether bond, for example, 2,3,3,3-tetrafluoro-2-[1,1,2,3,3,3-hexafluoro-2-(trifluoromethoxy)propoxy]-propanoic acid has a solubility in water of about 10% at normal temperature, which is about 50 times of the solubility of perfluorooctanoic acid (PFOA) in water. Therefore, the adsorption rate of general active carbon, for example, general-purpose active carbon for waste water which was conventionally used is 5% or less at normal temperature and pH 7.

Data set [1] is described as follows: adsorption and desorption by heating the active carbon in a dryer at 99° C. (Example 3). Format: physicochemical. Particulars: Tables 3 and 4, 99° C. for 48 hours. As for the experimental part:
An active carbon (Specific surface area: 500-2,000 m^2/g) (0.1 g), to which 2,3,3,3-tetrafluoro-2-[1,1,2,3,3,3-hexafluoro-2-(trifluoromethoxy)propoxy]-propanoic acid was adsorbed until reaching the breakthrough point, was charged into a dryer and left at a temperature of 99° C. for 48 hours. The desorption amount was taken as the same as an adsorption amount in adsorption again after the desorption.

For data set [2] the following is noted: normal temperature; cited from earlier work.

Take `O=C(O)C(F)(OC(F)(F)C(F)(OC(F)(F)F)C(F)(F)F)C(F)(F)F` (stereo not drawn) [2,3,3,3-tetrafluoro-2-[1,1,2,3,3,3-hexafluoro-2-(trifluoromethoxy)propoxy]-propanoic acid]: the “solubility in water relative to perfluorooctanoic acid (PFOA)” value in “solubility in water” was “about 50 times”. In addition, the “desorption compared with perfluorohexanoic acid” value in data set [1] is given as “higher desorption”. Moreover, the solubility in water result in data set [2] was “about 10%”.
